Assay results: PubChem BioAssay AID1963451 (Molecular Pharmacology Branch, DTP, NCI, 2024)

Tested on: 521955-158-R6-J3-PDC complex spheroid growth, % test/control
Assay: Anticancer human tumor 521955-158-R6-J3-PDC patient-derived pancreatic carcinoma cell line growth inhibition [Asc]
Conditions: for IC50: curve of first compound; for viability, T/C: stronger effect = lower value; active = viability on the fitted dose curve at most 10% of control; inactive = the rest
How it was run: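 Spheroid model: tumor line + HUVEC + hMSC. Single agents and combinations; top conc. at/near clinical Cmax (10 microM if undetermined), half-log dilutions. DMSO stocks at 800-fold test concentration.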

[1] = second compound 0.00316 µM, first compound 0.0316 µM
[2] = second compound 0.00316 µM, first compound 0.1 µM
[3] = second compound 0.00316 µM, first compound 0.316 µM
[4] = second compound 0.00316 µM, first compound 1 µM
[5] = second compound 0.00316 µM, first compound 3.16 µM
[6] = second compound 0.00316 µM, first compound 10 µM
[7] = second compound 0.01 µM, first compound 0.0316 µM
[8] = second compound 0.01 µM, first compound 0.1 µM
[9] = second compound 0.01 µM, first compound 0.316 µM
[10] = second compound 0.01 µM, first compound 1 µM
[11] = second compound 0.01 µM, first compound 3.16 µM
[12] = second compound 0.01 µM, first compound 10 µM
[13] = second compound 0.0316 µM, first compound 0.0316 µM
[14] = second compound 0.0316 µM, first compound 0.1 µM
[15] = second compound 0.0316 µM, first compound 0.316 µM
[16] = second compound 0.0316 µM, first compound 1 µM
[17] = second compound 0.0316 µM, first compound 3.16 µM
[18] = second compound 0.0316 µM, first compound 10 µM
[19] = second compound 0.1 µM, first compound 0.0316 µM
[20] = second compound 0.1 µM, first compound 0.1 µM
[21] = second compound 0.1 µM, first compound 0.316 µM
[22] = second compound 0.1 µM, first compound 1 µM
[23] = second compound 0.1 µM, first compound 3.16 µM
[24] = second compound 0.1 µM, first compound 10 µM
[25] = second compound 0.316 µM, first compound 0.0316 µM
[26] = second compound 0.316 µM, first compound 0.1 µM
[27] = second compound 0.316 µM, first compound 0.316 µM
[28] = second compound 0.316 µM, first compound 1 µM
[29] = second compound 0.316 µM, first compound 3.16 µM
[30] = second compound 0.316 µM, first compound 10 µM
[31] = second compound 1 µM, first compound 0.0316 µM
[32] = second compound 1 µM, first compound 0.1 µM
[33] = second compound 1 µM, first compound 0.316 µM
[34] = second compound 1 µM, first compound 1 µM
[35] = second compound 1 µM, first compound 3.16 µM
[36] = second compound 1 µM, first compound 10 µM
[37] = second compound 0.00316 µM, first compound 0.00949 µM
[38] = second compound 0.00316 µM, first compound 0.03 µM
[39] = second compound 0.00316 µM, first compound 0.0949 µM
[40] = second compound 0.00316 µM, first compound 0.3 µM
[41] = second compound 0.00316 µM, first compound 0.949 µM
[42] = second compound 0.00316 µM, first compound 3 µM
[43] = second compound 0.01 µM, first compound 0.00949 µM
[44] = second compound 0.01 µM, first compound 0.03 µM
[45] = second compound 0.01 µM, first compound 0.0949 µM
[46] = second compound 0.01 µM, first compound 0.3 µM
[47] = second compound 0.01 µM, first compound 0.949 µM
[48] = second compound 0.01 µM, first compound 3 µM
[49] = second compound 0.0316 µM, first compound 0.00949 µM
[50] = second compound 0.0316 µM, first compound 0.03 µM
[51] = second compound 0.0316 µM, first compound 0.0949 µM
[52] = second compound 0.0316 µM, first compound 0.3 µM
[53] = second compound 0.0316 µM, first compound 0.949 µM
[54] = second compound 0.0316 µM, first compound 3 µM
[55] = second compound 0.1 µM, first compound 0.00949 µM
[56] = second compound 0.1 µM, first compound 0.03 µM
[57] = second compound 0.1 µM, first compound 0.0949 µM
[58] = second compound 0.1 µM, first compound 0.3 µM
[59] = second compound 0.1 µM, first compound 0.949 µM
[60] = second compound 0.1 µM, first compound 3 µM
[61] = second compound 0.316 µM, first compound 0.00949 µM
[62] = second compound 0.316 µM, first compound 0.03 µM
[63] = second compound 0.316 µM, first compound 0.0949 µM
[64] = second compound 0.316 µM, first compound 0.3 µM
[65] = second compound 0.316 µM, first compound 0.949 µM
[66] = second compound 0.316 µM, first compound 3 µM
[67] = second compound 1 µM, first compound 0.00949 µM
[68] = second compound 1 µM, first compound 0.03 µM
[69] = second compound 1 µM, first compound 0.0949 µM
[70] = second compound 1 µM, first compound 0.3 µM
[71] = second compound 1 µM, first compound 0.949 µM
[72] = second compound 1 µM, first compound 3 µM
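Also: spheroids exposed to compounds for 7 days.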
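For viability, T/C in this document: 100% = DMSO vehicle control wells.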

C#Cc1c(F)ccc2cc(O)cc(-c3ncc4c(N5CC6CCC(C5)N6)nc(OCC56CCCN5CC(F)C6)nc4c3F)c12 (stereo not drawn) + CNC(C)C(=O)NC1CN(S(=O)(=O)c2cccc(S(=O)(=O)N3CCC4CCC(C(=O)NC(c5ccccc5)c5ccccc5)N4C(=O)C(NC(=O)C(C)NC)C3)c2)CCC2CCC(C(=O)NC(c3ccccc3)c3ccccc3)N2C1=O
0.0703 µM: IC50 (second compound 0.1 µM)
< 0.0316 µM: IC50 (second compound 1 µM)
0.115 µM: IC50 (second compound 0.00316 µM)
0.0559 µM: IC50 (second compound 0.0316 µM)
0.063 µM: IC50 (second compound 0.01 µM)
inactive: viability, T/C [1] 57.4% | viability, T/C [2] 45.8% | viability, T/C [3] 46.8% | viability, T/C [4] 38.4% | viability, T/C [5] 36.3% | viability, T/C [6] 21.4% | viability, T/C [7] 56.6% | viability, T/C [8] 44.7% | viability, T/C [9] 38.4% | viability, T/C [10] 34.7% | viability, T/C [11] 37% | viability, T/C [12] 25.1% | viability, T/C [13] 54.9% | viability, T/C [14] 42.8% | viability, T/C [15] 42% | viability, T/C [16] 33.1% | viability, T/C [17] 25.6% | viability, T/C [18] 24.9% | viability, T/C [19] 56.5% | viability, T/C [20] 46% | viability, T/C [21] 38.7% | viability, T/C [22] 38.7% | viability, T/C [23] 33.6% | viability, T/C [24] 24.8% | viability, T/C [25] 54.4% | viability, T/C [26] 37% | viability, T/C [27] 33.1% | viability, T/C [28] 29.7% | viability, T/C [29] 33.6% | viability, T/C [30] 18.3% | viability, T/C [31] 44.9% | viability, T/C [32] 41.7% | viability, T/C [33] 43.5% | viability, T/C [34] 30.7% | viability, T/C [35] 30.4% | viability, T/C [36] 21.9%
0.042 µM: IC50 (second compound 0.316 µM)

C=C(F)C(=O)N1CCN(c2nc(OCC3CCCN3C)nc3c2CCN(c2cccc4cccc(Cl)c24)C3)CC1CC#N (stereo not drawn) + CNC(C)C(=O)NC1CN(S(=O)(=O)c2cccc(S(=O)(=O)N3CCC4CCC(C(=O)NC(c5ccccc5)c5ccccc5)N4C(=O)C(NC(=O)C(C)NC)C3)c2)CCC2CCC(C(=O)NC(c3ccccc3)c3ccccc3)N2C1=O
3.46 µM: IC50 (second compound 1 µM)
active: viability, T/C [6] 0.24% | viability, T/C [12] 0.28% | viability, T/C [18] 0.21% | viability, T/C [24] 0.28% | viability, T/C [30] 0.26% | viability, T/C [36] 0.32%
4.74 µM: IC50 (second compound 0.00316 µM)
3.96 µM: IC50 (second compound 0.0316 µM)
4.13 µM: IC50 (second compound 0.01 µM) | IC50 (second compound 0.1 µM)
inactive: viability, T/C [1] 92.6% | viability, T/C [2] 88.5% | viability, T/C [3] 81.2% | viability, T/C [4] 77.6% | viability, T/C [5] 76.8% | viability, T/C [7] 87.4% | viability, T/C [8] 83% | viability, T/C [9] 80.5% | viability, T/C [10] 66.9% | viability, T/C [11] 69.4% | viability, T/C [13] 95.6% | viability, T/C [14] 98.2% | viability, T/C [15] 73.7% | viability, T/C [16] 71.2% | viability, T/C [17] 70.2% | viability, T/C [19] 84.9% | viability, T/C [20] 74.2% | viability, T/C [21] 76.4% | viability, T/C [22] 69.7% | viability, T/C [23] 66.7% | viability, T/C [25] 79.6% | viability, T/C [26] 80.6% | viability, T/C [27] 77.1% | viability, T/C [28] 68.8% | viability, T/C [29] 62.5% | viability, T/C [31] 70.8% | viability, T/C [32] 77.2% | viability, T/C [33] 80.2% | viability, T/C [34] 71.5% | viability, T/C [35] 54.4%
3.84 µM: IC50 (second compound 0.316 µM)

CCN1C(C(=O)NC23CCC(C(=O)O)(CC2)CC3)C(c2cccc(Cl)c2F)C2(C(=O)Nc3cc(Cl)ccc32)C12CCCCC2 (stereo not drawn) + CNC(C)C(=O)NC1CN(S(=O)(=O)c2cccc(S(=O)(=O)N3CCC4CCC(C(=O)NC(c5ccccc5)c5ccccc5)N4C(=O)C(NC(=O)C(C)NC)C3)c2)CCC2CCC(C(=O)NC(c3ccccc3)c3ccccc3)N2C1=O
> 3 µM: IC50 (second compound 0.00316 µM) | IC50 (second compound 0.01 µM) | IC50 (second compound 0.0316 µM) | IC50 (second compound 0.1 µM) | IC50 (second compound 0.316 µM) | IC50 (second compound 1 µM)
inactive: viability, T/C [37] 110% | viability, T/C [38] 110% | viability, T/C [39] 89.7% | viability, T/C [40] 111% | viability, T/C [41] 99.5% | viability, T/C [42] 97.5% | viability, T/C [43] 111% | viability, T/C [44] 90.1% | viability, T/C [45] 99.4% | viability, T/C [46] 98.8% | viability, T/C [47] 102% | viability, T/C [48] 103% | viability, T/C [49] 106% | viability, T/C [50] 78.3% | viability, T/C [51] 91.3% | viability, T/C [52] 96.3% | viability, T/C [53] 85.9% | viability, T/C [54] 85.3% | viability, T/C [55] 86.8% | viability, T/C [56] 92.4% | viability, T/C [57] 81.9% | viability, T/C [58] 92% | viability, T/C [59] 93.3% | viability, T/C [60] 96.4% | viability, T/C [61] 70.1% | viability, T/C [62] 82.4% | viability, T/C [63] 97.7% | viability, T/C [64] 83.3% | viability, T/C [65] 82.1% | viability, T/C [66] 88.2% | viability, T/C [67] 85.2% | viability, T/C [68] 102% | viability, T/C [69] 90.1% | viability, T/C [70] 83% | viability, T/C [71] 84.9% | viability, T/C [72] 96.4%

Cc1nc(N2CCC3(CC2)COC(C)C3N)c(CO)nc1Sc1ccnc(N)c1Cl (stereo not drawn) + CNC(C)C(=O)NC1CN(S(=O)(=O)c2cccc(S(=O)(=O)N3CCC4CCC(C(=O)NC(c5ccccc5)c5ccccc5)N4C(=O)C(NC(=O)C(C)NC)C3)c2)CCC2CCC(C(=O)NC(c3ccccc3)c3ccccc3)N2C1=O
inactive: viability, T/C [37] 99.5% | viability, T/C [38] 88.7% | viability, T/C [39] 73.2% | viability, T/C [40] 86.7% | viability, T/C [41] 73.4% | viability, T/C [42] 55% | viability, T/C [43] 109% | viability, T/C [44] 74% | viability, T/C [45] 79.4% | viability, T/C [46] 87.7% | viability, T/C [47] 69.9% | viability, T/C [48] 57.9% | viability, T/C [49] 90% | viability, T/C [50] 83.1% | viability, T/C [51] 81.1% | viability, T/C [52] 73.4% | viability, T/C [53] 63.6% | viability, T/C [54] 55% | viability, T/C [55] 94.6% | viability, T/C [56] 79.5% | viability, T/C [57] 82.3% | viability, T/C [58] 68.5% | viability, T/C [59] 60.1% | viability, T/C [60] 60.1% | viability, T/C [61] 82.9% | viability, T/C [62] 74.9% | viability, T/C [63] 77.4% | viability, T/C [64] 67.6% | viability, T/C [65] 62.5% | viability, T/C [66] 52.9% | viability, T/C [67] 82.7% | viability, T/C [68] 79.8% | viability, T/C [69] 74.6% | viability, T/C [70] 73% | viability, T/C [71] 73.9% | viability, T/C [72] 57.6%
> 3 µM: IC50 (second compound 0.00316 µM) | IC50 (second compound 0.01 µM) | IC50 (second compound 0.0316 µM) | IC50 (second compound 0.1 µM) | IC50 (second compound 0.316 µM) | IC50 (second compound 1 µM)
